Experimental data taken from patent US20070208166A1, “Tao Kinase Modulators And Method Of Use” (Exelixis, Inc., priority 2003, published 2007).

Experiments:
Format in all cases: biochemical
[1] = molecular target: T1, KIAA 1361 (baculovirus expressed human KIAA 1361 kinase domain 2-322) (Homo sapiens, UniProt Q7L7X3); assay: KIAA 1361 Luciferase-Coupled Chemiluminescent Kinase assay (LCCA); settings: 2 μM ATP, 10 μM MBP, 12 nM KIAA 1361, 2 hours; read-out: KIAA1361 inhibition IC50
T1 construct: human KIAA 1361 kinase domain 2-322; made in house
T1 sequence (Q7L7X3 2-322): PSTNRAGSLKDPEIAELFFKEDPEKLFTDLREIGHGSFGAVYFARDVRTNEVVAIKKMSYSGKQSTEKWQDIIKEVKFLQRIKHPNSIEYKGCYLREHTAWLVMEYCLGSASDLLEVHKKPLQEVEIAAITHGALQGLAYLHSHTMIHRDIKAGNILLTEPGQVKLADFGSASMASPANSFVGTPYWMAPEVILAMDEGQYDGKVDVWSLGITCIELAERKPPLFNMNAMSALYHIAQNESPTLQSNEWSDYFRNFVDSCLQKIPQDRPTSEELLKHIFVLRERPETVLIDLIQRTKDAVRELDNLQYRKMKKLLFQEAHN
Summary of the method: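 KIAA 1361 kinase domain 2-322 (baculovirus, 12 nM) with 2 μM ATP and 10 μM MBP in Tris pH 7.5, MgCl2, MnCl2; 2 h, ambient. Remaining ATP read by luciferase chemiluminescence; 10 concentrations, IC50 by four-parameter fit.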

JIK = molecular target: T2, JIK (Homo sapiens, UniProt Q9H2K8); assay: JIK Luciferase-Coupled Chemiluminescent Kinase assay (LCCA); settings: 2 μM ATP, 10 μM MBP, 6 nM JIK, 2 hours; read-out: JIK inhibition IC50
T2 construct: 6 nM JIK (baculovirus expressed human KIAA 1361 kinase domain2-318); made in house
T2 sequence (Q9H2K8 2-318): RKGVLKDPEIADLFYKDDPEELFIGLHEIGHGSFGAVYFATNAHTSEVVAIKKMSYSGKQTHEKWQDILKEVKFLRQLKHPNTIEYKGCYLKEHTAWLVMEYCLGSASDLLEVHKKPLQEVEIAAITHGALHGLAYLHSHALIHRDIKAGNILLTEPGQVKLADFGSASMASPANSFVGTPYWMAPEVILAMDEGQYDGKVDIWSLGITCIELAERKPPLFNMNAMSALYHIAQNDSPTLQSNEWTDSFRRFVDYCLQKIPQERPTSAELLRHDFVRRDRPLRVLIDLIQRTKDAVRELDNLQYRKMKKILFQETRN
Summary of the method: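 Baculovirus-expressed human KIAA 1361 kinase domain 2-318 at 6 nM, with 10 μM MBP and 2 μM ATP in Tris pH 7.5 with Mg/Mn, ran 2 h at ambient temperature. Remaining ATP was read by luciferase chemiluminescence. IC50 comes from a 10-concentration four-parameter fit.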

TAO = molecular target: T3, TAO (Homo sapiens, UniProt Q9UL54); assay: TAO Luciferase-Coupled Chemiluminescent Kinase assay (LCCA); settings: 2 μM ATP, 10 μM MBP, 12 nM TAO, 2 hours; read-out: TAO inhibition IC50
T3 sequence (Q9UL54 1-1235): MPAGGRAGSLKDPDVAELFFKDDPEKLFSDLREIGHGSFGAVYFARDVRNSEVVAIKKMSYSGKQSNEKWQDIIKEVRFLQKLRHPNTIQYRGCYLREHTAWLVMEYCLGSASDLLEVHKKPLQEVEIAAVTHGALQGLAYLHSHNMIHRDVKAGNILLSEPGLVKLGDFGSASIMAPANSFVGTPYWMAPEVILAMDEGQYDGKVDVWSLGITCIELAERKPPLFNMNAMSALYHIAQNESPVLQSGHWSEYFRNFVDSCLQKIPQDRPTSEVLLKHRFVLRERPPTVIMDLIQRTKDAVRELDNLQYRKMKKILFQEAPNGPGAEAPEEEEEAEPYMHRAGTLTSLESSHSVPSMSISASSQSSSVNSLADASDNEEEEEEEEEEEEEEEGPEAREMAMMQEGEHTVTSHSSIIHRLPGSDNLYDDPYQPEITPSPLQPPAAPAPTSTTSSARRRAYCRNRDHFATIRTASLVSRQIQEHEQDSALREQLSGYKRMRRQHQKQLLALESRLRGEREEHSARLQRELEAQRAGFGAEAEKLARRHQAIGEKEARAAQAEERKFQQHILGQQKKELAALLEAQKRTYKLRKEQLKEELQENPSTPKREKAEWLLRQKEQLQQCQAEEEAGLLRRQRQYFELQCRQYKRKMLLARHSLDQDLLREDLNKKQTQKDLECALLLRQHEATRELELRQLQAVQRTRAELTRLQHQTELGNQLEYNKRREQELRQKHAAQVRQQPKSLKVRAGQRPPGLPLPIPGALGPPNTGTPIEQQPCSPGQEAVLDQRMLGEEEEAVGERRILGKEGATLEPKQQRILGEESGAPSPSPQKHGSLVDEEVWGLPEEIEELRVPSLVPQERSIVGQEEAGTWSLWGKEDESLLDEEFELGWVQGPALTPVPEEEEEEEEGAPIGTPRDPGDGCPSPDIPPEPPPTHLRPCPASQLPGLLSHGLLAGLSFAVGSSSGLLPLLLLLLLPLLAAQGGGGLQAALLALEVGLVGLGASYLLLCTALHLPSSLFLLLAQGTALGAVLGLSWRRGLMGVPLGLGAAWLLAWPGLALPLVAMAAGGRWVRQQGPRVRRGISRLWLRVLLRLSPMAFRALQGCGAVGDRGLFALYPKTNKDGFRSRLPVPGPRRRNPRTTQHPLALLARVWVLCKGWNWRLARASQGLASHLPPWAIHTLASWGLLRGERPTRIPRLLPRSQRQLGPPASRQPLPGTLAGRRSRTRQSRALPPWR

Row | Compound | IC50 [1] | IC50 (JIK) | IC50 (TAO)
1 | CCc1ccc(-c2ccc(C(=O)NCC(=O)NCc3ccc(Cl)c(Cl)c3)cc2)cc1 [Entry 54, N-(2-{[(3,4-dichlorophenyl)methyl]amino}-2-oxoethyl)-4′-ethylbiphenyl-4-carboxamide] | > 5000 nM | > 5000 nM | > 5000 nM
2 | CCc1cccc(NC(=O)NCC(=O)NC2CCCc3ccccc32)c1 (stereo not drawn) [Entry 48, N˜2˜-{[(3-ethylphenyl)amino]carbonyl}-N-(1,2,3,4-tetrahydronaphthalen-1-yl)glycinamide] | > 5000 nM | > 5000 nM | > 5000 nM
3 | CCc1ccc(-c2ccc(C(=O)NCC(=O)N3CCc4ccccc4C3)cc2)cc1 [Entry 60, N-[2-(3,4-dihydroisoquinolin-2(1H)-yl)-2-oxoethyl]-4′-ethylbiphenyl-4-carboxamide] | > 5000 nM | > 5000 nM | > 5000 nM
4 | O=C(COc1ccc(Cl)cc1)NCC(=O)NC1CCCc2ccccc21 (stereo not drawn) [Entry 34, N˜2˜-{[(4-chlorophenyl)oxy]acetyl}-N-(1,2,3,4-tetrahydronaphthalen-1-yl)glycinamide] | > 5000 nM | 500 to 5000 nM | > 5000 nM
5 | CCc1ccc(-c2ccc(C(=O)NCC(=O)NC3CCCCC3)cc2)cc1 [Entry 53, N-[2-(cyclohexylamino)-2-oxoethyl]-4′-ethylbiphenyl-4-carboxamide] | > 5000 nM | > 5000 nM | > 5000 nM
6 | O=C(CNC(=O)c1ccc(N2CCCCC2)cc1)Nc1cccc2c1CCCC2 [Entry 89, N-[2-oxo-2-(5,6,7,8-tetrahydronaphthalen-1-ylamino)ethyl]-4-piperidin-1-ylbenzamide] | > 5000 nM | > 5000 nM | > 5000 nM
7 | CCCCCOc1ccc(C(=O)NC(CC(C)C)C(=O)NC2CCCc3ccccc32)cc1 (stereo not drawn) [Entry 35, N˜2˜-{[4-(pentyloxy)phenyl]carbonyl}-N(1,2,3,4-tetrahydronaphthalen-1-yl)leucinamide] | > 5000 nM | 50 to 500 nM | 500 to 5000 nM
8 | O=C(CC(NC(=O)c1ccccc1)c1ccccc1)Nc1nc2ccc(O)cc2s1 (stereo not drawn) [Entry 97, N-{3-[(6-hydroxy-1,3-benzothiazol-2-yl)amino]-3-oxo-1-phenylpropyl)benzamide] | > 5000 nM | > 5000 nM | > 5000 nM
9 | O=C(CNC(=O)c1ccc2ncccc2c1)NC1CCCc2ccccc21 (stereo not drawn) [Entry 80, N-[2-oxo-2-(1,2,3,4-tetrahydronaphthalen-1-ylamino)ethyl]quinoline-6-carboxamide] | 500 to 5000 nM | 50 to 500 nM | 500 to 5000 nM
10 | O=C(CNC(=O)C(NC(=O)C(c1ccccc1)C1CCCC1)c1cccnc1)NC1CCCc2ccccc21 (stereo not drawn) [Entry 55, N˜2˜-[{[cyclopentyl(phenyl)acetyl]amino}(pyridin-3-yl)acetyt]-N-(1,2,3,4-tetrahydronaphthalen-1-yl)glycinamide] | > 5000 nM | > 5000 nM | > 5000 nM

More lines, now with the values ahead:

Row | IC50 [1] | IC50 (JIK) | IC50 (TAO) | Compound
11 | 50 to 500 nM | 50 to 500 nM | 500 to 5000 nM | CC(NC(=O)c1ccc(OCc2ccccc2)cc1)C(=O)NC1CCc2ccccc2C1 (stereo not drawn) [Entry 19, N-[1-methyl-2-oxo-2-(1,2,3,4-tetrahydronaphthalen-2-ylamino)ethyl]-4-[(phenylmethyl)oxy]benzamide]
12 | < 50 nM | < 50 nM | < 50 nM | CCc1ccc(-c2ccc(C(=O)NCC(=O)N[C@H]3CCCc4ccccc43)cc2)cc1 [Entry 61, 4′-ethyl-N-{2-oxo-2-[(1S)-1,2,3,4-tetrahydronaphthalen-1-ylamino]ethyl}biphenyl-4-carboxamide]
13 | 50 to 500 nM | 50 to 500 nM | 500 to 5000 nM | CCCCc1ccc(NC(=O)N2CCC[C@H]2C(=O)NCc2ccc(Cl)c(Cl)c2)cc1 [Entry 22, (2S)-N˜-1˜-(4-butylphenyl)-N˜2˜-[(3,4-dichlorophenyl)methyl]pyrrolidine-1,2-dicarboxamide]
14 | 50 to 500 nM | 50 to 500 nM | 500 to 5000 nM | O=C(CNC(=O)c1ccc(O)cc1)NC1CCCc2ccccc21 (stereo not drawn) [Entry 56, 4-hydroxy-N-[2-oxo-2-(1,2,3,4-tetrahydronaphthalen-1-ylamino)ethyl]benzamide]
15 | 50 to 500 nM | 50 to 500 nM | 500 to 5000 nM | O=C(CNC(=O)COc1ccc(Br)cc1)NCc1ccc(Cl)c(Cl)c1 [Entry 25, N˜2˜-{[(4-bromophenyl)oxy]acetyl}-N-[(3,4-dichlorophenyl)methyl]glycinamide]
16 | 50 to 500 nM | 50 to 500 nM | 500 to 5000 nM | Cc1cc(C(=O)NCC(=O)NC2CCCc3ccccc32)cc(C)c1OCc1ccccc1 (stereo not drawn) [Entry 20, 3,5-dimethyl-N-{2-oxo-2-(1,2,3,4-tetrahydronaphthalen-1-ylamino)ethyl]-4-[(phenylmethyl)oxy]benzamide]
17 | 50 to 500 nM | < 50 nM | 50 to 500 nM | O=C(COc1ccc(OCc2ccccc2)cc1)NCC(=O)NC1CCCc2ccccc21 (stereo not drawn) [Entry 2, N˜2˜-[({4-[(phenylmethyl)oxy]phenyl}oxy)acetyl]-N-(1,2,3,4-tetrahydronaphthalen-1-yl)glycinamide]
18 | 500 to 5000 nM | 50 to 500 nM | > 5000 nM | CCc1ccc(-c2ccc(C(=O)NCC(=O)NC(CC)c3ccccc3)cc2)cc1 (stereo not drawn) [Entry 83, 4′-ethyl-N-{2-oxo-2-[(1-phenylpropyl)amino]ethyl}biphenyl-4-carboxamide]
19 | 50 to 500 nM | 50 to 500 nM | 500 to 5000 nM | CCCCCCCc1ccc(C(=O)NCC(=O)NC2CCCc3ccccc32)cc1 (stereo not drawn) [Entry 12, 4-heptyl-N-[2-oxo-2-(1,2,3,4-tetrahydronaphthalen-1-ylamino)ethyl]benzamide]
20 | < 50 nM | < 50 nM | < 50 nM | COc1ccc2nc(NC(=O)CNC(=O)CC(NC(=O)c3ccccc3)c3ccccc3)sc2c1 (stereo not drawn) [Entry 63, N-{3-[(2-{[6-(methyloxy)-1,3-benzothiazol-2-yl]amino}-2-oxoethyl)amino]-3-oxo-1-phenylpropyl}benzamide]
21 | 50 to 500 nM | < 50 nM | 50 to 500 nM | O=C(CC(NC(=O)c1ccccc1)c1ccccc1)NCC(=O)Nc1nc2ccc(O)cc2s1 (stereo not drawn) [Entry 98, N-[3-({2-[(6-hydroxy-1,3-benzothiazol-2-yl)amino]-2-oxoethyl}amino)-3-oxo-1-phenylpropyl]benzamide]
22 | 50 to 500 nM | 50 to 500 nM | 50 to 500 nM | CCCCCCc1ccc(C(=O)NCC(=O)NC2CCCc3ccccc32)cc1 (stereo not drawn) [Entry 10, 4-hexyl-N-[2-oxo-2-(1,2,3,4-tetrahydronaphthalen-1-ylamino)ethyl]benzamide]
